Laboratory results as given in patent US20050164370A1 (priority 2003, published 2005).

Tests used:
cytokinin receptor AHK2 = molecular target: T1, cytokinin receptor AHK2 (Arabidopsis thaliana, UniProt Q9C5U2); details: TM182-AHK2, DOLU+Glu agar, 1 nM to 100 μM tested, 30° C. for 30 hours
T1 sequence (Q9C5U2 1-1176): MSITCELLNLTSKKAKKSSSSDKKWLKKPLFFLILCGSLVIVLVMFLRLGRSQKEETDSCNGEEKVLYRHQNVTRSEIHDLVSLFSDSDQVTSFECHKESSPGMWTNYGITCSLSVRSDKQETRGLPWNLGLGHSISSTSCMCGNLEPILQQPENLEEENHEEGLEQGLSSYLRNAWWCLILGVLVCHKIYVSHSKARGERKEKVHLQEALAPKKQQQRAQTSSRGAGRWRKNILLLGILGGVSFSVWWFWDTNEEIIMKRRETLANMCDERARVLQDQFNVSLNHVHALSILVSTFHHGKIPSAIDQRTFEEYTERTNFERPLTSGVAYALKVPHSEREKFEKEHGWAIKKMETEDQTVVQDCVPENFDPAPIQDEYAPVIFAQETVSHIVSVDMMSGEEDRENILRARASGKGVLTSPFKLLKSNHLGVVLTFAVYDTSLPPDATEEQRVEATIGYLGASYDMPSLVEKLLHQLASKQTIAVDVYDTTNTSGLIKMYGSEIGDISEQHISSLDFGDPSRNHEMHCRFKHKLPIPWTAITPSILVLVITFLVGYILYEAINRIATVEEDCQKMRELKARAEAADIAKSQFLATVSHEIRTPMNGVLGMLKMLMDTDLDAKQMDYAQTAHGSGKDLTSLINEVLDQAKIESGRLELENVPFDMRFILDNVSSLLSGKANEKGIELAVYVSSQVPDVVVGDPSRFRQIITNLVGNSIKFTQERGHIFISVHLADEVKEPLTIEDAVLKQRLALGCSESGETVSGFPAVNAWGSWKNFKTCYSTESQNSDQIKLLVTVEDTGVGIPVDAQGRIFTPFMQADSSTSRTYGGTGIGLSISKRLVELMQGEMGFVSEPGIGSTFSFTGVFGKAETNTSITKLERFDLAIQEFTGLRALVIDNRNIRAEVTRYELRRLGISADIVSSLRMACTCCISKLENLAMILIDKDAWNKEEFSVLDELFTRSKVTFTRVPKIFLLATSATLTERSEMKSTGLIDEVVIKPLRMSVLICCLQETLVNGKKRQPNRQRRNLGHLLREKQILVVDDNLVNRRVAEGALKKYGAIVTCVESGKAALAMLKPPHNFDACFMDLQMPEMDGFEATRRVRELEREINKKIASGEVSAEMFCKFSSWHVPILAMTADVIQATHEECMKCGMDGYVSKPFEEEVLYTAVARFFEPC
Protocol: (§1) A culture solution 10 μl (about 800 clones of yeast) of the transformed cells TM182-CRE1, TM182-AHK2, TM182-AHK2Δ and TM182-AHK3 produced by the example 12 was spotted on DOLU+Glu agar media containing 10 μM of trans-zeatin and cultured at 30° C. for 30 hours. After incubation, the growth state of the transformed cells was observed and photographed by a digital camera.
(§2) Culture solutions of the transformed cells TM182-CRE1, TM182-AHK2Δ and TM182-AHK2 produced by the reference example 1 were spotted on DOLU+Glu agar media containing cytokinin in a variety of concentrations (1 nM, 10 nM, 100 nM, 1 μM, 10 μM, 100 μM) and cultured at 30° C. for 30 hours. After incubation, the growth state of the transformed cells was observed and photographed by a digital camera.

cytokinin receptor AHK2Δ = molecular target: T2, cytokinin receptor AHK2Δ (Arabidopsis thaliana, UniProt Q9C5U2); details: TM182-AHK2Δ, DOLU+Glu agar, 1 nM to 100 μM tested, 30° C. for 30 hours
T2 sequence (Q9C5U2 196-1176): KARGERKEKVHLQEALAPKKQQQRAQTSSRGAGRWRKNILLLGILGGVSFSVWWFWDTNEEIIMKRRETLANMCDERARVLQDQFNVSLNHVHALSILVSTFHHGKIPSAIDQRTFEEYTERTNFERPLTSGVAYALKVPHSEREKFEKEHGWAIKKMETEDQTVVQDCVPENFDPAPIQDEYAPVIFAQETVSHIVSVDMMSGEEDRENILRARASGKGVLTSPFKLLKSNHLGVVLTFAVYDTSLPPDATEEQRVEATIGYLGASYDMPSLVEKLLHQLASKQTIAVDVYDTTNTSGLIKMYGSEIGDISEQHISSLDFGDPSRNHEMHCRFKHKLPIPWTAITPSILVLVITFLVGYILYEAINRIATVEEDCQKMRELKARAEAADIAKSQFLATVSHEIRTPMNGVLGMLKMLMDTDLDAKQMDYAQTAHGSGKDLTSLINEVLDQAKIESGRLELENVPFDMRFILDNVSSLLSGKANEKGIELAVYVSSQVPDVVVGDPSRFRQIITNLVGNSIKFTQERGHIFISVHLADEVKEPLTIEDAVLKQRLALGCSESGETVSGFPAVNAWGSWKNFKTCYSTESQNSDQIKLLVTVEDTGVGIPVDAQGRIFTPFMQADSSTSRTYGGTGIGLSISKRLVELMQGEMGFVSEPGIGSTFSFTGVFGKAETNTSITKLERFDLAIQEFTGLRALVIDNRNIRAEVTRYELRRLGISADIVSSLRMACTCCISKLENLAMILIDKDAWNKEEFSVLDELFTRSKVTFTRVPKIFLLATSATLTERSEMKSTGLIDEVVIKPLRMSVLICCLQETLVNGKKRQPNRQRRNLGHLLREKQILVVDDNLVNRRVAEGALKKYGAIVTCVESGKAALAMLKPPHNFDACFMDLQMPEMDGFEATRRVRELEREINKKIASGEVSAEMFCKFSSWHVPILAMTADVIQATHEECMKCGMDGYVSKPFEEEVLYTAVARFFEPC
Protocol: as §1, §2

cytokinin receptor CRE1 = cytokinin receptor CRE1 (Arabidopsis thaliana, UniProt Q9C5U0, S567G/T1018A); details: TM182-CRE1, DOLU+Glu agar, 1 nM to 100 μM tested, 30° C. for 30 hours
Chain of cytokinin receptor CRE1 (Q9C5U0 24-1080 S567G/T1018A): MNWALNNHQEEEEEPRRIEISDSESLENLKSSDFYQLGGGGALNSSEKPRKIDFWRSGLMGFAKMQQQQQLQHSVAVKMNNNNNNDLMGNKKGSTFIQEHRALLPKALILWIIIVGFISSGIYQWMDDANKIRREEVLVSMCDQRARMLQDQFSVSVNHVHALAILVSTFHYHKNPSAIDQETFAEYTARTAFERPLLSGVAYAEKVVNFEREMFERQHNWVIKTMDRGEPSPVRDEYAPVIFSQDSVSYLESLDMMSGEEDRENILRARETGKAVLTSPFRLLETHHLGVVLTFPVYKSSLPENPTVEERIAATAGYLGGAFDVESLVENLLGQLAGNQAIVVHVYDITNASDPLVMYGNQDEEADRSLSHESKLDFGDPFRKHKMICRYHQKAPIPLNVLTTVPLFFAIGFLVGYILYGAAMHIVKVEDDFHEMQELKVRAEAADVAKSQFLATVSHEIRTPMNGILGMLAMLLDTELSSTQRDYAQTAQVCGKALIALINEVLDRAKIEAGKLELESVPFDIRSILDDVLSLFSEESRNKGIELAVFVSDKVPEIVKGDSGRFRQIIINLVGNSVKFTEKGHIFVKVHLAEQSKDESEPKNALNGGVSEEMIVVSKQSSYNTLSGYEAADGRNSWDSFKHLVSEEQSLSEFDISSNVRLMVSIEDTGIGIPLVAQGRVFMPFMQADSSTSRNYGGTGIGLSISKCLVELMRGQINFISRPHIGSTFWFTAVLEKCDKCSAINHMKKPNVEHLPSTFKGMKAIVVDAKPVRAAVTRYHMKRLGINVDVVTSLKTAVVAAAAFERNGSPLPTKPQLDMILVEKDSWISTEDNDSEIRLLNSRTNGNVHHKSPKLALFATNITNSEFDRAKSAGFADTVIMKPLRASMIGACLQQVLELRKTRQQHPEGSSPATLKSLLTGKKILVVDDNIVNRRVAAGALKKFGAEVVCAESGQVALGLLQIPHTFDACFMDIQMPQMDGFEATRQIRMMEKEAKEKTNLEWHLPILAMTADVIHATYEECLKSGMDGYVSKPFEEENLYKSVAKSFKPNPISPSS
Protocol: as §1, §2

C/C(=C/CNc1ncnc2nc[nH]c12)CO [cis-zeatin]
lowest observed supply concentration in which the transformed cells could be grown (cytokinin receptor AHK2): 10 µM
lowest observed supply concentration in which the transformed cells could be grown (cytokinin receptor AHK2Δ): 1 µM
lowest observed supply concentration in which the transformed cells could be grown (cytokinin receptor CRE1): no growth
